Some results are limits rather than exact numbers.

One assay deals with HCV replicon. Briefly: Replicon based assay of HCV replication inhibition (NPT ELISA). Format: cell-based, Hepatitis C virus. Conditions: Hepatitis C virus, Huh-7, 72 h, Table I; Huh-7 HCV replicon-containing cells, three days; read-out: Activity. In a few lines: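 Huh-7 cells carrying a bicistronic HCV replicon (neo, EMCV-IRES-driven NS3–NS5B) treated overnight after seeding with usually 6 concentrations, 10 to 0.03 micromolar, for three days at 37° C without G418. Replication read as NPT level by captured ELISA; matched-DMSO wells and interferon alpha as controls.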
With `Clc1ccccc1-c1csc(Nc2cccc(Oc3ccccc3)c2)n1` [compound 191, 4-(2-chlorophenyl)-N-(3-phenoxyphenyl)thiazol-2-amine], the EC50 is less than 1 µM.
The same measure, in the same setting: the same measure for `c1ccc(-c2ccc(CNc3nc(-c4cccnc4)cs3)cc2)cc1` [compound 78, N-(4-phenyl-benzyl)-4-(pyridin-3-yl)thiazol-2-amine]: more than 10 µM; for `c1cncc(-c2csc(Nc3ccc(N4CCCCC4)cc3)n2)c1` [compound 101, N-(4-(piperidin-1-yl)phenyl)-4-(pyridin-3-yl)thiazol-2-amine]: more than 10 µM.
Same read-out and setting: under `CCCCCOc1ccc(Nc2nc(-c3cccnc3)cs2)cn1` [compound 67, 6-(pentyloxy)-N-(4-(pyridin-3-yl)thiazol-2-yl)pyridin-3-amine] stands less than 1 µM.
On to `FC(F)Oc1ccc(-c2csc(Nc3cccnc3)n2)cc1` [compound 214, N-(4-(4-(difluoromethoxy)phenyl)thiazol-2-yl)pyridin-3-amine], for which the EC50 is more than 10 µM.
The same measure, in the same setting: under `CCOC(=O)Cc1csc(Nc2nc(-c3ccc(Cl)cc3)cs2)n1` [compound 147, ethyl 2-(2-(4-(4-chlorophenyl)thiazol-2-ylamino)thiazol-4-yl)acetate] stands more than 10 µM; under `Fc1cc(Nc2nc(-c3cccnc3)cs2)ccc1N1CCC(c2ccccc2)CC1` [compound 72, N-(3-fluoro-4-(4-phenylpiperidin-1-yl)phenyl)-4-(pyridin-3-yl)thiazol-2-amine], less than 1 µM.
On the same count and under the same terms, under `N#Cc1ccc(Nc2nc(-c3ccc(Cl)c(Cl)c3)cs2)cc1` [compound 52, 4-(4-(3,4-dichlorophenyl)thiazol-2-ylamino)benzonitrile] stands more than 10 µM; under `CCCCCOc1ccc(Nc2nc(-c3cc(-c4ccc(Cl)c(Cl)c4)no3)cs2)cn1` [compound 179, N-(4-(3-(3,4-dichlorophenyi)isoxazol-5-yl)thiazol-2-yl)-6-(pentyloxy)pyridin-3-amine], more than 10 µM.
`CCCCCOc1ccc(Nc2nc(C(=O)O)cs2)cc1C(F)(F)F` [compound 10, 2-(3-(trifluoromethyl)-4-(pentyloxy)phenylamino)thiazole-4-carboxylic acid]: the EC50 was more than 10 µM.
Still for that read-out and setting: the same measure for `CCCCCOc1ccc(Nc2nc(C(=O)N(C)c3ccc(Cl)c(Cl)c3)cs2)cc1C(F)(F)F` [compound 129, 2-(3-(trifluoromethyl)-4-(pentyloxy)phenylamino)-N-(3,4-dichlorophenyl)-N-methylthiazole-4-carboxamide]: more than 10 µM.

Staying with this assay, now noted: Hepatitis C virus, Huh-7, 72 h, Table III; Huh-7 HCV replicon-containing cells, three days; read-out: Activity.
Turning to `CCCCCN(C)c1ccc(Nc2nc(Cc3ccc(OC)cc3)cs2)cc1C(F)(F)F` [compound 643, N^4-(4-(4-methoxybenzyl)thiazol-2-yl)-2-(trifluoromethyl)-N^1-methyl-N^1-pentylbenzene-1,4-diamine], the EC50 is more than 10 µM.
For `CCCCCCCc1ccc(Nc2nc(-c3cc4ccccc4o3)cs2)cc1` [compound 565, 4-(benzofuran-2-yl)-N-(4-heptylphenyl)thiazol-2-amine], the EC50 was more than 10 µM.
Turning to `CCCCCCCCOc1ccc(Nc2nc(-c3cncn3C)cs2)cc1C(F)(F)F` [compound 663, N-(3-(trifluoromethyl)-4-(octyloxy)phenyl)-4-(1-methyl-1H-imidazol-5-yl)thiazol-2-amine], the EC50 was less than 1 µM.
Still for that read-out and setting: under `CCCCCCCCOc1ccc(Nc2nc(-c3ccc(S(N)(=O)=O)cc3)cs2)cc1C(F)(F)F` [compound 712] stands less than 1 µM; under `O=C(c1ccc(Nc2nc(-c3ccc(F)cc3)cs2)cc1C(F)(F)F)N1CCC2CCCCC2C1` (centres unmarked) [compound 699, (4-(4-(4-fluorophenyl)thiazol-2-ylamino)-2-(trifluoromethyl)phenyl)(octahy-droisoquinolin-2(1H)-yl)methanone], more than 10 µM.

The same assay, now with this note: Hepatitis C virus, replicon based assay of HCV replication inhibition; Table II; read-out: Activity.
Take `Cc1ccc(-c2csc(Nc3ccc(OCC4CCCCC4)c(F)c3)n2)cn1` [compound 508, N-(4-(cyclohexylmethoxy)-3-fluorophenyl)-4-(6-methylpyridin-3-yl)thiazol-2-amine]: the EC50 is less than 1 µM.
Still for that read-out and setting: the same measure for `CCCCCOc1ccc(Nc2nc(C3=CSC4=NCCN34)cs2)cc1C(F)(F)F` [compound 228, 4-(5,6-dihydroimidazo[2,1-b]thiazol-3-yl)-N-(4-(pentyloxy)-3-(trifluoromethyl)phenyl)thia-zol-2-amine]: less than 1 µM; for `Cc1sc(Nc2cccnc2)nc1-c1ccc(F)cc1` [compound 349, N-(4-(4-fluorophenyl)-5-methylthiazol-2-yl)pyridin-3-amine]: more than 10 µM; for `CCCCCCCCN(C)c1ccc(Nc2nc(Cc3cccnc3)cs2)cc1` [compound 503, N^1-methyl-N^1-octyl-N^4-(4-((pyridin-3-yl)methyl)thiazol-2-yl)benzene-1,4-diamine]: more than 10 µM.
Take `CCCCCCCOc1ccc(Nc2nc(-c3nc4ccccc4s3)cs2)cc1` [compound 400, 4-(benzo[d]thiazol-2-yl)-N-(4-(heptyloxy)phenyl)thiazol-2-amine]: the EC50 lay in the range of 1 to 10 µM.
Same read-out and setting: under `COc1ccc(OC)c(Nc2ncc(-c3cccs3)s2)c1` [compound 440, N-(2,5-dimethoxyphenyl)-5-(thiophen-2-yl)thiazol-2-amine] stands 1 to 10 µM; under `CCCCCOc1ccc(Nc2nc(CNCc3cccnc3)cs2)cc1C(F)(F)F` [compound 260, N-(4-(pentyloxy)-3-(trifluoromethyl)phenyl)-4-((pyridin-3-ylmethylamino)methyl)thia-zol-2-amine], less than 1 µM; under `Cc1sc(NC(=O)c2ccccc2)nc1-c1ccc(CC(=O)O)cc1` [compound 345, 2-(4-(2-benzamido-5-methylthiazol-4-yl)phenyl)acetic acid], more than 10 µM.
Still for that read-out and setting: under `Fc1cc(Nc2nc(-c3cncnc3)cs2)ccc1OCC1CCCCC1` [compound 506, N-(4-(cyclohexylmethoxy)-3-fluorophenyl)-4-(pyrimidin-5-yl)thiazol-2-amine] stands less than 1 µM.
`CCCCCOc1ccc(Nc2nc(-c3ccccn3)cs2)cc1C(F)(F)F` [compound 409, N-(3-(trifluoromethyl)-4-(pentyloxy)phenyl)-4-(pyridin-2-yl)thiazol-2-amine]: the EC50 was less than 1 µM.
Still for that read-out and setting: the same measure for `CCCCCOc1ccc(Nc2nc(-c3ccc(NC(C)=O)cc3)cs2)cc1F` [compound 439, N-(4-(2-(3-fluoro-4-(pentyloxy)phenylamino)thia-zol-4-yl)phenyl)acetamide]: less than 1 µM.
Same read-out and setting: under `CCCCCCCOc1ccc(Nc2nc(-c3cc4cnccc4o3)cs2)cc1` [compound 362, 4-(furo[3,2-c]pyridin-2-yl)-N-(4-(heptyloxy)phenyl)thiazol-2-amine] stands 1 to 10 µM; under `CCCCCCCCOc1ccc(Nc2nc(O)cs2)cc1` [compound 464, 2-(4-(octyloxy)phenylamino)thia-zol-4-ol], 1 to 10 µM; under `CCCCCCCCOc1ccc(Nc2nc(-c3cccc(C(=O)O)c3)cs2)cc1` [compound 384, 3-(2-(4-(octyloxy)phenylamino)thia-zol-4-yl)benzoic acid], less than 1 µM.
Still for that read-out and setting: the same measure for `CCCCCOc1ccc(Nc2nc(N3CCCC3C(=O)O)cs2)cc1C(F)(F)F` (centres unmarked) [compound 368, 1-(2-(4-(pentyloxy)-3-(trifluoromethyl)phenyl-amino)thiazol-4-yl)pyrrolidine-2-carboxylic acid]: 1 to 10 µM.
Turning to `COc1ccc(-c2nc(NC(=O)c3ccccc3)sc2-c2ccc(OC)cc2)cc1` [compound 335, N-(4,5-bis(4-methoxyphenyl)thiazol-2-yl)benzamide], the EC50 lay within 1 to 10 µM.

The assay is the same for the next values; noted with them: Hepatitis C virus, replicon based assay of HCV replication inhibition; Table IV; read-out: Activity.
On to `NC(=O)c1sccc1-c1csc(Nc2ccc(OCC3CCCCC3)c(F)c2)n1` [compound 725, 3-(2-(4-(cyclohexylmethoxy)-3-fluorophenylamino)thiazol-4-yl)thiophene-2-carboxamide], for which the EC50 is less than 1 µM.
Still for that read-out and setting: the same measure for `CCCCCCCCSc1ccc(Nc2nc(-c3cnc(OC)nc3)cs2)cc1C(F)(F)F` [compound 777, N-(3-(trifluoromethyl)-4-(octylthio)phenyl)-4-(2-methoxypyrimidin-5-yl)thiazol-2-amine]: less than 1 µM; for `CCCCCCCCOc1ccc(Nc2nc(-c3cnc(N)nc3)cs2)cc1C(F)(F)F` [compound 810, 5-(2-(3-(trifluoromethyl)-4-(octyloxy)phenylamino)thiazol-4-yl)pyrimidin-2-amine]: less than 1 µM.
On the same count and under the same terms, under `FC(F)(F)c1cc(Nc2nc(-c3cccnc3)cs2)ccc1OCCCc1cccnc1` [compound 800, N-(4-(3-(pyridin-3-yl)propoxy)-3-(trifluoromethyl)phenyl)-4-(pyridin-3-yl)thiazol-2-amine] stands less than 1 µM; under `N#Cc1ccc(Nc2nc(-c3cccnc3)cs2)cc1C(F)(F)F` [compound 882, 4-(4-(pyridin-3-yl)thiazol-2-ylamino)-2-(trifluoromethyl)benzonitrile], more than 10 µM; under `CCCCCCCCOc1ccc(Nc2nc(-c3csc(C)n3)cs2)cc1C(F)(F)F` [compound 915, N-(3-(trifluoromethyl)-4-(octyloxy)phenyl)-4-(2-methylthiazol-4-yl)thiazol-2-amine], less than 1 µM.
On the same count and under the same terms, under `Fc1ccc(-c2csc(Nc3ccc(OCCCc4cccnc4)c(C(F)(F)F)c3)n2)cc1` [compound 806, N-(4-(3-(pyridin-3-yl)propoxy)-3-(trifluoromethyl)phenyl)-4-(4-fluorophenyl)thiazol-2-amine] stands 1 to 10 µM; under `Brc1ccc(Nc2nc(-c3cccnc3)cs2)nc1` [compound 739, 5-bromo-N-(4-(pyridin-3-yl)thiazol-2-yl)pyridin-2-amine], more than 10 µM.
`Cc1cccc2sc(Nc3nc(-c4cccnc4)cs3)nc12` [compound 747, 4-methyl-N-(4-(pyridin-3-yl)thiazol-2-yI)benzo[d]thiazol-2-amine]: the EC50 is more than 10 µM.

The values above are taken from patent US8088806B2 (Achillion Pharmaceuticals, Inc., priority 2005, dated 2012).
